Measurements reported in US20150105252A1, “SUBSTITUTED PYRAZOLES AS HERBICIDES” (E I DU PONT DE NEMOURS AND COMPANY, priority 2013, published 2015).

Assays:
oilseed rape = assay: Test C postemergence; assay type: in vivo, Brassica napus; settings: for Plant response rating (scale of 0 to 100 where 0 is no effect and 100 is complete control), Oilseed Rape: Postemergence, 31 g ai/ha, visually evaluated after 13 to 15 days; for Oilseed Rape plant response rating / Plant response rating, Oilseed Rape: postemergence; for Oilseed Rape plant response rating: 62 g ai/ha, scale 0 to 100
In short: (§1)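 Pre- and postemergence greenhouse screen; vehicle was a non-phytotoxic solvent mix with surfactant. Preemergence: treatment applied right after sowing into loam and sand. Postemergence: treated at 1–4 leaves. Visual rating at 13–15 days, 100 = complete control.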

velvetleaf = assay: Test C postemergence; assay type: in vivo, Abutilon theophrasti; settings: for Plant response rating (scale of 0 to 100 where 0 is no effect and 100 is complete control), Velvetleaf: Postemergence, 31 g ai/ha, visually evaluated after 13 to 15 days; for Velvetleaf plant response rating / Plant response rating, Velvetleaf: postemergence; for Velvetleaf plant response rating: 62 g ai/ha, scale 0 to 100
In short: as §1

johnsongrass = assay: Test C postemergence; assay type: in vivo, Sorghum halepense; settings: for Plant response rating (scale of 0 to 100 where 0 is no effect and 100 is complete control), Johnsongrass: Postemergence, 31 g ai/ha, visually evaluated after 13 to 15 days; for Johnsongrass plant response rating / Plant response rating, Johnsongrass: postemergence; for Johnsongrass plant response rating: 62 g ai/ha, scale 0 to 100
In short: as §1

ducksalad = assay: Test B flood; assay type: in vivo, Heteranthera limosa; settings: 250 g ai/ha, visual rating on 0 to 100 scale (0 no effect, 100 complete control), 13 to 15 days
In short: (§2)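 At two leaves, seedlings received the test compound via the paddy water, pots having been flooded 3 cm over the soil surface and kept so. Greenhouse-held for 13 to 15 days, then judged by eye against controls on a scale running 0 (no effect) to 100 (complete control).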

foxtail, giant = assay: Test A preemergence; assay type: in vivo, Setaria faberii
In short: (§3)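 Greenhouse test in loam soil/sand blend; compounds formulated in non-phytotoxic solvent with surfactant, applied as preemergence directed soil spray or postemergence to plants 2–10 cm tall at one- to two-leaf stage. Injury rated visually versus untreated controls after approximately 10 days on a 0 (no effect) to 100 (complete control) scale.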

barnyardgrass [1] = assay: Test B flood; assay type: in vivo, Echinochloa crus-galli; settings: 250 g ai/ha, visual rating on 0 to 100 scale (0 no effect, 100 complete control), 13 to 15 days
In short: as §2

waterhemp = assay: Test C preemergence; assay type: in vivo, Amaranthus rudis; settings: for Plant response rating (scale of 0 to 100), Waterhemp: Preemergence, 250 g ai/ha; for Waterhemp plant response rating / Plant response rating, Waterhemp: preemergence; for Plant response rating, Waterhemp: 62 g ai/ha, scale 0 to 100, 0 = no effect, 100 = complete control
In short: as §1

pigweed = assay: Test C postemergence; assay type: in vivo, Amaranthus retroflexus; settings: for Plant response rating (scale of 0 to 100 where 0 is no effect and 100 is complete control), Pigweed: Postemergence, 31 g ai/ha, visually evaluated after 13 to 15 days; for Pigweed plant response rating / Plant response rating, Pigweed: postemergence; for Pigweed plant response rating: 62 g ai/ha, scale 0 to 100
In short: as §1

lambsquarters = assay: Test C postemergence; assay type: in vivo, Chenopodium album; settings: for Plant response rating (scale of 0 to 100 where 0 is no effect and 100 is complete control), Lambsquarters: Postemergence, 31 g ai/ha, visually evaluated after 13 to 15 days; for Lambsquarters plant response rating / Plant response rating, Lambsquarters: postemergence; for Lambsquarters plant response rating: 62 g ai/ha, scale 0 to 100
In short: as §1

nutsedge, yellow = assay: Test C postemergence; assay type: in vivo, Cyperus esculentus; settings: for Plant response rating (scale of 0 to 100 where 0 is no effect and 100 is complete control), Nutsedge, Yellow: Postemergence, 31 g ai/ha, visually evaluated after 13 to 15 days; for Nutsedge, Yellow plant response rating / Plant response rating, Nutsedge, Yellow: postemergence; for Nutsedge, Yellow plant response rating: 62 g ai/ha, scale 0 to 100
In short: as §1

barnyardgrass [2] = assay: Test A postemergence; assay type: in vivo, Echinochloa crus-galli
In short: as §3

oat, wild = assay: Test C postemergence; assay type: in vivo, Avena fatua; settings: for Plant response rating (scale of 0 to 100 where 0 is no effect and 100 is complete control), Oat, Wild: Postemergence, 31 g ai/ha, visually evaluated after 13 to 15 days; for Oat, Wild plant response rating / Plant response rating, Oat, Wild: postemergence; for Oat, Wild plant response rating: 62 g ai/ha, scale 0 to 100
In short: as §1

kochia = assay: Test C postemergence; assay type: in vivo, Kochia scoparia; settings: for Plant response rating (scale of 0 to 100 where 0 is no effect and 100 is complete control), Kochia: Postemergence, 31 g ai/ha, visually evaluated after 13 to 15 days; for Kochia plant response rating / Plant response rating, Kochia: postemergence; for Kochia plant response rating: 62 g ai/ha, scale 0 to 100
In short: as §1

rice = assay: Test B flood; assay type: in vivo, Oryza sativa; settings: 250 g ai/ha, visual rating on 0 to 100 scale (0 no effect, 100 complete control), 13 to 15 days
In short: as §2

[3] = 250 g ai/ha, scale 0 to 100 (0 no effect, 100 complete control)
[4] = 125 g ai/ha, scale 0 to 100, 0 no effect, 100 complete control
[5] = preemergence, 125 g ai/ha, visual injury, 0 to 100 scale, approx. 10 days
[6] = 31 g ai/ha, visual rating, scale 0 to 100 (0 no effect, 100 complete control), 13 to 15 days
[7] = 125 g ai/ha, scale 0 to 100, 0 is no effect, 100 is complete control
[8] = Postemergence, 500 g ai/ha, visual rating after approx. 10 days, 0 to 100 scale (0 no effect, 100 complete control)

Compound: CCc1cc(C(=O)NCC(F)(F)F)nn1Cc1ccnc(C(F)(F)F)c1 [Compound 78, 5-ethyl-N-(2,2,2-trifluoroethyl)-1-[[(2-trifluoromethyl)-4-pyridinyl]methyl]-1H-pyrazole-3-carboxamide]
- Plant response rating (scale of 0 to 100 where 0 is no effect and 100 is complete control), Oilseed Rape (oilseed rape): 45
- Oilseed Rape plant response rating (oilseed rape): 45
- Plant response rating, Oilseed Rape (oilseed rape; [3]): 55
- Plant response rating, Oilseed Rape (oilseed rape; [4]): 50
- Plant response rating (scale of 0 to 100 where 0 is no effect and 100 is complete control), Velvetleaf (velvetleaf): 15
- Velvetleaf plant response rating (velvetleaf): 20
- Plant response rating, Velvetleaf (velvetleaf; [3]): 75
- Plant response rating, Velvetleaf (velvetleaf; [4]): 50
- Plant response rating (scale of 0 to 100 where 0 is no effect and 100 is complete control), Johnsongrass (johnsongrass): 0
- Johnsongrass plant response rating (johnsongrass): 5
- Plant response rating, Johnsongrass (johnsongrass; [3]): 75
- Plant response rating, Johnsongrass (johnsongrass; [4]): 55
- Plant response rating, Ducksalad (ducksalad): 85
- Foxtail, Giant plant response rating (foxtail, giant; Preemergence, 500 g ai/ha, 0 to 100 scale, 0 no effect, 100 complete control): 100
- Foxtail, Giant plant response rating (foxtail, giant; [5]): 100
- Plant response rating, Barnyardgrass (barnyardgrass [1]): 50
- Plant response rating (scale of 0 to 100), Waterhemp (waterhemp): 100
- Waterhemp plant response rating (waterhemp; [6]): 100
- Plant response rating, Waterhemp (waterhemp; 13 to 15 days): 100
- Waterhemp plant response rating (waterhemp; [7]): 100
- Plant response rating (scale of 0 to 100 where 0 is no effect and 100 is complete control), Pigweed (pigweed): 40
- Pigweed plant response rating (pigweed): 75
- Plant response rating, Pigweed (pigweed; [3]): 98
- Plant response rating, Pigweed (pigweed; [4]): 90
- Plant response rating (scale of 0 to 100 where 0 is no effect and 100 is complete control), Lambsquarters (lambsquarters): 60
- Lambsquarters plant response rating (lambsquarters): 75
- Plant response rating, Lambsquarters (lambsquarters; [3]): 98
- Plant response rating, Lambsquarters (lambsquarters; [4]): 95
- Plant response rating (scale of 0 to 100 where 0 is no effect and 100 is complete control), Nutsedge, Yellow (nutsedge, yellow): 5
- Nutsedge, Yellow plant response rating (nutsedge, yellow): 5
- Plant response rating, Nutsedge, Yellow (nutsedge, yellow; [3]): 15
- Plant response rating, Nutsedge, Yellow (nutsedge, yellow; [4]): 10
- Barnyardgrass plant response rating (barnyardgrass [2]; Postemergence, 125 g ai/ha, 0 to 100 scale, 0 no effect, 100 complete control): 50
- Barnyardgrass plant response rating (barnyardgrass [2]; [8]): 90
- Plant response rating (scale of 0 to 100 where 0 is no effect and 100 is complete control), Oat, Wild (oat, wild): 5
- Oat, Wild plant response rating (oat, wild): 5
- Plant response rating, Oat, Wild (oat, wild; [3]): 30
- Plant response rating, Oat, Wild (oat, wild; [4]): 10
- Plant response rating (scale of 0 to 100 where 0 is no effect and 100 is complete control), Kochia (kochia): 85
- Kochia plant response rating (kochia): 90
- Plant response rating, Kochia (kochia; [3]): 90
- Plant response rating, Kochia (kochia; [4]): 90
- Plant response rating, Rice (rice): 50

Compound: CCc1cc(C(=O)NC(C)C)nn1Cc1ccnc(C(F)(F)F)c1 [Compound 103]
- Plant response rating (scale of 0 to 100 where 0 is no effect and 100 is complete control), Oilseed Rape (oilseed rape): 5
- Oilseed Rape plant response rating (oilseed rape): 50
- Plant response rating, Oilseed Rape (oilseed rape; [3]): 70
- Plant response rating, Oilseed Rape (oilseed rape; [4]): 50
- Plant response rating (scale of 0 to 100 where 0 is no effect and 100 is complete control), Velvetleaf (velvetleaf): 25
- Velvetleaf plant response rating (velvetleaf): 40
- Plant response rating, Velvetleaf (velvetleaf; [3]): 55
- Plant response rating, Velvetleaf (velvetleaf; [4]): 45
- Plant response rating (scale of 0 to 100 where 0 is no effect and 100 is complete control), Johnsongrass (johnsongrass): 5
- Johnsongrass plant response rating (johnsongrass): 10
- Plant response rating, Johnsongrass (johnsongrass; [3]): 95
- Plant response rating, Johnsongrass (johnsongrass; [4]): 20
- Plant response rating, Ducksalad (ducksalad): 90
- Foxtail, Giant plant response rating (foxtail, giant; [5]): 100
- Foxtail, Giant plant response rating (foxtail, giant; preemergence, 500 g ai/ha, visual injury after approx. 10 days, 0 to 100 scale (0 no effect, 100 complete control)): 100
- Plant response rating, Barnyardgrass (barnyardgrass [1]): 40
- Plant response rating (scale of 0 to 100), Waterhemp (waterhemp): 100
- Waterhemp plant response rating (waterhemp; [6]): 100
- Plant response rating, Waterhemp (waterhemp; 13 to 15 days): 100
- Waterhemp plant response rating (waterhemp; [7]): 100
- Plant response rating (scale of 0 to 100 where 0 is no effect and 100 is complete control), Pigweed (pigweed): 50
- Pigweed plant response rating (pigweed): 50
- Plant response rating, Pigweed (pigweed; [3]): 80
- Plant response rating, Pigweed (pigweed; [4]): 65
- Plant response rating (scale of 0 to 100 where 0 is no effect and 100 is complete control), Lambsquarters (lambsquarters): 65
- Lambsquarters plant response rating (lambsquarters): 70
- Plant response rating, Lambsquarters (lambsquarters; [3]): 90
- Plant response rating, Lambsquarters (lambsquarters; [4]): 75
- Plant response rating (scale of 0 to 100 where 0 is no effect and 100 is complete control), Nutsedge, Yellow (nutsedge, yellow): 10
- Nutsedge, Yellow plant response rating (nutsedge, yellow): 10
- Plant response rating, Nutsedge, Yellow (nutsedge, yellow; [3]): 20
- Plant response rating, Nutsedge, Yellow (nutsedge, yellow; [4]): 10
- Barnyardgrass plant response rating (barnyardgrass [2]; [8]): 90
- Barnyardgrass plant response rating (barnyardgrass [2]; postemergence, 125 g ai/ha, about 10 days, visual rating on 0 to 100 scale (0 no effect, 100 complete control)): 90
- Plant response rating (scale of 0 to 100 where 0 is no effect and 100 is complete control), Oat, Wild (oat, wild): 5
- Oat, Wild plant response rating (oat, wild): 5
- Plant response rating, Oat, Wild (oat, wild; [3]): 50
- Plant response rating, Oat, Wild (oat, wild; [4]): 50
- Plant response rating (scale of 0 to 100 where 0 is no effect and 100 is complete control), Kochia (kochia): 85
- Kochia plant response rating (kochia): 85
- Plant response rating, Kochia (kochia; [3]): 90
- Plant response rating, Kochia (kochia; [4]): 85
- Plant response rating, Rice (rice): 50
